Test results published in US20160311911A1, “METHODS FOR TREATING ALLERGIC AIRWAY INFLAMMATION” (priority 2015, published 2016).
Values belong to the compound of their own block, whether it stands above or below them.

Experiments:
IgE = conditions: reference 20; cited from earlier work
CXCR2 [1] = target: T1, CXCR2 (Mus musculus, UniProt P35343); assay: Ex vivo superoxide generation from BALF cells after RWPE challenge; assay type: in vivo; conditions: WT mice; 4 mg/kg intranasal 1 hour before RWPE; 16 hours after RWPE challenge
T1 construct: endogenous in cells; host or cells: wild-type mice in vivo (receptor on neutrophils)
T1 sequence (P35343 1-359): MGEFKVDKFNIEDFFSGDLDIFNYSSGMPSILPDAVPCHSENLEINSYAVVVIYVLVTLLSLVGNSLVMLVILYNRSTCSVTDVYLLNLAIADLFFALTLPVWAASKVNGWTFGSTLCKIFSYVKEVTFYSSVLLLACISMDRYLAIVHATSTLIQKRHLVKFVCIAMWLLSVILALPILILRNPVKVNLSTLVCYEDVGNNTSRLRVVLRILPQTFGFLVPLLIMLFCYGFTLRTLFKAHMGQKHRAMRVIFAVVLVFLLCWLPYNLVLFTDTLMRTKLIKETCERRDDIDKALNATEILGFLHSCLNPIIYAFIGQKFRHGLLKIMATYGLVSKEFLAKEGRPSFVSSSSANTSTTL
Protocol: WT mice and Tlr4 KO mice were challenged with 100 μg of RWPE or PBS and sacrificed at 0.5 and 16 hours. Ex vivo superoxide generation by BALF cells was measured by a mixture of two probes to optimize sensitivity of detection of superoxide (luminol and Diogenes) (Yamazaki et al., Trop Med Health 2011; 39(2):41-45). In additional experiments, WT mice with intranasal administration of the CXCR2 inhibitor SB225002 (4 mg/kg body weight) 1 hour before RWPE challenge, and ex vivo superoxide generation from cells in BALF was quantified.

CXCR2 [2] = target: T1, CXCR2; assay: RWPE single-challenge model with CXCR2 inhibitor: BALF cell counts; assay type: in vivo; conditions: WT mice
Protocol: WT mice and Tlr4 KO mice were intranasally challenged with a single dose of 100 μg/60 μl RWPE reconstituted from lyophilized RWPE (Greer Laboratories, Lenoir, N.C.) and killed after 0.5, 1, 4, 16, or 72 hours. In some experiments, to generate superoxide (7, 15), Tlr4 KO mice were intranasally challenged with 0.32 mM xanthine (X) (Sigma-Aldrich, St. Louis, Mo.) with 50 mU xanthine oxidase (XO) (Sigma-Aldrich) in the presence or absence of RWPE. In some experiments, 1 hour before RWPE challenge, WT mice were treated with intranasal administration of 4 mg/kg body weight chemokine (C-X-C motif) receptor 2 (CXCR2) inhibitor SB225002 (Calbiochem, San Diego, Calif.) and challenged with RWPE and killed as described above.
(§1) Bronchoalveolar lavage fluid (BALF) and histological examinations including PAS staining for mucin were performed as described previously (Sur et al., J Immunol 1996; 157(9):4173-4180). In some experiments, leukotriene B4 (LTB4), CXCL1/2, IL-5, IL-13, TSLP, and IL-33 in BALF were assayed using ELISA kits (R&D Systems, Minneapolis, Minn.)

CXCR2 [3] = target: T1, CXCR2; assay: RWPE repeated-challenge model with CXCR2 inhibitor; assay type: in vivo; conditions: WT mice
Protocol: WT mice or Tlr4 KO mice were sensitized by five intranasal doses of RWPE (100 μg/60 μl) on Days 0, 1, 2, 3, and 4. These mice were challenged with intranasal RWPE or PBS on Day 11 and killed on Day 14 (14). In addition, WT mice were sensitized by five intranasal doses of RWPE on Days 0, 1, 2, 3, and 4 with RWPE with or without the intranasal administration of 4 mg/kg body weight SB225002 (16) 1 hour before each intranasal dose of RWPE. The mice were challenged with intranasal RWPE on Day 11 and killed on Day 14 (14). In some experiments, Tlr4 KO mice were sensitized by five intranasal doses of RWPE on Days 0, 1, 2, 3, and 4 in the presence or absence of X+XO and challenged with intranasal RWPE in the presence or absence of X+XO on Day 11 and killed on Day 14 as described above (14). In some experiments, RWPE and negatively selected neutrophils derived from bone marrow of donor mice were repeatedly intranasally instilled in Tlr4 KO mice. The purity of neutrophils was assessed to be 99% by FACS. Tlr4 KO mice were intranasally administered neutrophils (4×10^6 neutrophils per mouse) 8 hours after intranasal instillation of RWPE on Days 0, 1, 2, 3, 4, and 11 and killed on Day 14 as described previously to evaluate allergic inflammation.
as §1
Mucin production was assessed by two investigators who were blinded to the treatment groups using a modification of a method reported (Wild et al., 2000, J Immunol 2000; 164(5):2701-2710) on a subjective scale of 0, 1, 2, 3, and 4 corresponding to none, mild, moderate, marked, or severe mucin deposition, respectively. The data were expressed as mean of score recorded by two blinded investigators.
RWPE-specific IgE was measured using a previously described procedure (Wild et al., J Immunol 2000; 164(5):2701-2710). Briefly 96-well plates were coated with 100 ug/ml of RWPE protein overnight. After washing and blocking, diluted sera from the mice treated as above were applied. The plates were incubated with biotin-conjugated […] (clone R35-72; BD Biosciences, San Jose, Calif.) for 2 hours at room temperature, washed and incubated with avidin-conjugated alkaline phosphatase. After washing, fluorometric values for each well were recorded after addition of AttoPhos substrate solution (Promega, Madison, Wis.).

NF-κB = assay: RWPE single-challenge model after intranasal NF-κB inhibitor; assay type: in vivo; conditions: WT mice; intranasal 1 hour before RWPE; BAY 11-7082 10 mg/kg, NEMO-binding domain binding peptide 25 per mouse; 16 hours
Protocol: WT mice were intranasally challenged with a single dose of RWPE or CDE (100 μg/60 μL) and euthanized after 16 hours. In additional experiments, 1 hour before RWPE challenge, WT mice were treated with or without intranasal administration of a nuclear factor κB (NF-κB) inhibitor that selectively irreversibly blocks IκBα phosphorylation with BAY 11-7082 (10 mg/kg body weight; Calbiochem, San Diego, Calif.) (13) or NEMO-binding domain binding peptide (25 per mouse, Calbiochem) (14). These treated mice were challenged with RWPE and euthanized, as described above. Total and differential bronchoalveolar lavage fluid (BALF) cell counts were performed (16). Lungs were perfused and fixed with Zn fixative (BD Biosciences, San Jose, Calif.), and sections were stained with periodic acid-Schiff for mucus staining.

[4] = 4 mg/kg intranasal before each RWPE dose, vs vehicle

IgE, sequence (P01854 1-428 isoform P01854-1): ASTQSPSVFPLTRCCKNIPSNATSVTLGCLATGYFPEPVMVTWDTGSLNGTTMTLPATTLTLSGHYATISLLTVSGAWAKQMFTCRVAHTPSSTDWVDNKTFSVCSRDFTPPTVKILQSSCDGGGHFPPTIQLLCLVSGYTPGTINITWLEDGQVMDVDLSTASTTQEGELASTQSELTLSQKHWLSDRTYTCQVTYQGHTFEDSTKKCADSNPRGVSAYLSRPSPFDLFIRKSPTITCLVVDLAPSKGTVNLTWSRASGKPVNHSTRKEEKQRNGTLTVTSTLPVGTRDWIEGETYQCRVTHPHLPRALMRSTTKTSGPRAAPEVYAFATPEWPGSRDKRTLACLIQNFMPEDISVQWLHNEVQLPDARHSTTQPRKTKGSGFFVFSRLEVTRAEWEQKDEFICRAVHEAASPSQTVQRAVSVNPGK

Compound: Omalizumab: marketed drug cited for cat allergen exposure
severity of acute airway obstruction and symptoms caused by exposure to cat allergen (IgE): ameliorates

RWPE-induced recruitment of superoxide-generating cells (ex vivo superoxide generation of BALF cells) (CXCR2 [1]): blocked
suppression of neutrophil recruitment into the lungs (BALF neutrophils) (CXCR2 [2]; 4 mg/kg intranasal 1 hour before RWPE challenge, 16 hours after challenge): 66%
number of other cell types in BALF (CXCR2 [2]; inhibitor before RWPE challenge, data not shown): did not alter
RWPE-induced allergic inflammation (CXCR2 [3]; 4 mg/kg intranasal 1 hour before each RWPE dose, compared with vehicle): attenuated
decrease in BALF eosinophils (CXCR2 [3]; [4]): 50 to 80%
decrease in BALF level of IL-5 (CXCR2 [3]; [4]): 50 to 80%
decrease in BALF level of IL-13 (CXCR2 [3]; [4]): 50 to 80%
decrease in BALF level of IL-33 (CXCR2 [3]; [4]): 50 to 80%
decrease in BALF level of TSLP (CXCR2 [3]; [4]): 50 to 80%
decrease in BALF total inflammatory cells (CXCR2 [3]; [4]): 50 to 80%
decrease in accumulation of mucin in epithelial cells (CXCR2 [3]; [4]): 50 to 80%
decrease in serum RWPE-specific IgE (CXCR2 [3]; [4]): 50 to 80%
Compound: O=C(Nc1ccc([N+](=O)[O-])cc1O)Nc1ccccc1Br [SB225002]

Compound: Cc1ccc(S(=O)(=O)/C=C/C#N)cc1 [BAY 11-7082]
RWPE challenge-induced neutrophil recruitment into the airways (NF-κB): decreased
